Values joined by “and” are separate entries in the source; they are usually repeats but may differ in a detail not shown here. Equal entries are not always repeated.
Columns and labels:
[1] = format: physicochemical

SMILES	Adjuvant 1 h, mL separation (1 h) [mL]	Anionic 1 h, mL separation (1 h) [mL]	Adjuvant 24 h, mL separation (24 h) [mL]	Anionic 24 h, mL separation (24 h) [mL]	% Separation 1 h [1]	% Separation 24 h [1]	Nonionic 1 h, mL separation (1 h) [mL]	Nonionic 24 h, mL separation (24 h) [mL]
C[N+](C)(C)CCCNC(=O)CCCCCCCCC(CCCCCCCC(=O)NCCC[N+](C)(C)C)S(=O)(=O)O.[Na+] (centres unmarked) [C18-28, C18 DiDMAPA DiQuat Sulfonate]	0	0	0	0	4% and 3.4%	4.5% and 3.9%	–	–
C[N+](C)(CCCNC(=O)CCCCCCCCC(CCCCCCCC(=O)NCCC[N+](C)(C)CC(=O)[O-])S(=O)(=O)[O-])CC(=O)[O-].[Na+] (centres unmarked) [C18-33, C18 DiBetaine Sulfonate]	0	0	0	0	4% and 3%	4.5% and 3.4%	1	1

Source: patent US9416099B2 (priority 2010, dated 2016)
